Test results as given in US11548893B2 (priority 2017, dated 2023).

What was measured:
[1] = system: EBOV (mucin-deleted glycoprotein, VSV pseudotype); experiment: microbe, parasite or virus in culture; format: cell-based, Zaire ebolavirus; details: Zaire ebolavirus, Vero, 24 h, read-out: EC50 Pseudotype Assays EBOV
[2] = system: BDBV (mucin-deleted glycoprotein, VSV pseudotype); experiment: microbe, parasite or virus in culture; format: cell-based, Bundibugyo ebolavirus; details: Vesicular stomatitis virus, Vero, 24 h, read-out: EC50 Pseudotype Assays BDBV
[3] = system: SUDV (glycoprotein, VSV pseudotype); experiment: microbe, parasite or virus in culture; format: cell-based, Sudan ebolavirus; details: Vesicular stomatitis virus, Vero, 24 h, read-out: EC50 Pseudotype Assays SUDV
in vitro = details: African green monkey, Cytotox CC50
[4] = system: MARV (full-length glycoprotein, VSV pseudotype); experiment: microbe, parasite or virus in culture; format: cell-based, Marburg marburgvirus; details: Vesicular stomatitis virus, Vero, 24 h, read-out: EC50 Pseudotype Assays MARV

| Compound | EC50 [1] [nM] | EC50 [2] [nM] | EC50 [3] [nM] | CC50 (in vitro) [nM] | EC50 [4] [nM] |
| --- | --- | --- | --- | --- | --- |
| CCOCC12CC3CC(C(=O)N[C@H]4CC[C@@H](N)CC4)(C1)CC(c1ccccc1)(C3)C2 (mixture of isomers) [Example A29] | 62 | 790 | > 1000 | 16300 | – |
| CCC12CC3CC(CN[C@H]4CCN[C@@H](C)C4)(C1)CC(c1ccccc1)(C3)C2 (some centres unmarked) [Example A63] | 725 | 435 | 740 | 1470 | – |
| CC1(C)CN(C(=O)C23CC4C[C@](C)(C2)C[C@@](c2ccccc2)(C4)C3)CCC1N (some centres unmarked) [Example C8] | 97 | 123 | 550 | 12400 | – |
| CC12CC3CC(C(=O)NC45CCN(CC4)CC5)(C1)CC(c1ccccc1)(C3)C2 (racemic) [Example A60] | 35 | 120 | 330 | 23100 | – |
| CC1CC(N)CCN1C(=O)C12CC3CC(C)(C1)CC(c1ccccc1)(C3)C2 (racemic) [Example A40] | 69 | 165 | 450 | 24600 | – |
| CCC12CC3CC(CN[C@H]4CC[C@H](N)CC4)(C1)CC(c1ccccc1)(C3)C2 (some centres unmarked) [Example A66] | 220 | 199 | 490 | 4060 | 970 |
| C[C@@]12CC3CC(C(=O)N[C@H]4CCNC[C@@H]4F)(C1)C[C@](c1ccccc1)(C3)C2 [Example C6] | 320 | 250 | 480 | 12700 | 2980 |
| CC12CC3CC(C(=O)N4CCC5(CCNCC5)CC4)(C1)CC(c1ccccc1)(C3)C2 (racemic) [Example A50] | 61 | 90 | 160 | 8780 | – |
| CCC12CC3CC(CN[C@H]4CC[C@H](CN)CC4)(C1)CC(c1ccccc1)(C3)C2 (some centres unmarked) [Example A64] | 610 | 300 | 530 | 1240 | – |
| C[C@@]12CC3CC(C(=O)NC4CCNCC4)(C1)C[C@](c1ccccc1)(C3)C2 [Example C1] | 238 | 186 | 685 | 16300 | – |
| CC12CC3CC(C(=O)N4CCCC(N)CC4)(C1)CC(c1ccccc1)(C3)C2 (racemic) [Example A43] | 147 | 126 | 370 | 13000 | – |
| CC12CC3CC(C(=O)N4CCC5(CC5N)C4)(C1)CC(c1ccccc1)(C3)C2 (racemic) [Example A41] | 153 | 209 | 680 | 27700 | – |
| CC12CC3CC(C(=O)N4CCC5(CCN5)CC4)(C1)CC(c1ccccc1)(C3)C2 (racemic) [Example A51] | 157 | 228 | 520 | – | – |
| NC1CCN(CC23CC4CC(C2)CC(c2ccccc2)(C4)C3)CC1 [Example A68] | 600 | 280 | 400 | 7470 | > 3000 |
| CC12CC3CC(C(=O)N4CC[C@H](N)C4)(C1)CC(c1ccccc1)(C3)C2 (mixture of isomers) [Example A54] | 120 | 200 | 350 | 11300 | – |
| C[C@@]12CC3CC(C(=O)N4CCC(N)C5(CC5)C4)(C1)C[C@](c1ccccc1)(C3)C2 (some centres unmarked) [Example C9] | 269 | 150 | 620 | – | – |
| CC12CC3CC(C(=O)N4CCC(N)(CO)CC4)(C1)CC(c1ccccc1)(C3)C2 (racemic) [Example A46] | 41 | 48 | 90 | 12200 | – |
| CC1(C)CN(CC23CC4C[C@](C)(C2)C[C@@](c2ccccc2)(C4)C3)CC[C@@H]1N [Example C70] | > 1000 | 1020 | 1280 | – | – |
| C[C@@]12CC3CC(C(=O)N4CC5(CC(N)C5)C4)(C1)C[C@](c1ccccc1)(C3)C2 [Example C11] | 576 | 315 | 960 | – | – |
| C[C@@]12CC3CC(CN4CCC(N)CC4)(C1)C[C@](c1ccccc1)(C3)C2 [Example C69] | 313 | 208 | 310 | 3800 | 1140 |
| CC[C@@]12CC3CC(C(=O)N[C@H]4CC[C@H](N)CC4)(C1)C[C@](c1ccccc1)(C3)C2 [Example C16] | 353 | 388 | 940 | – | 2970 |
| CC1(C)CN(CC23CC4C[C@@](C)(C2)C[C@](c2ccccc2)(C4)C3)CC[C@H]1N [Example B71] | 1180 | 1030 | > 1000 | – | – |
| CC12CC3CC(C(=O)N4CCC[C@@H](N)C4)(C1)CC(c1ccccc1)(C3)C2 (mixture of isomers) [Example A57] | 55 | 170 | 220 | 7880 | – |

| Compound | EC50 [1] [nM] | EC50 [2] [nM] | EC50 [3] [nM] | CC50 (in vitro) [nM] | EC50 [4] [nM] |
| --- | --- | --- | --- | --- | --- |
| CC1(C)CN(CC23CC4C[C@](C)(C2)C[C@@](c2ccccc2)(C4)C3)CC[C@H]1N [Example C71] | > 1000 | > 1000 | > 1000 | – | – |
| CCC12CC3CC(CNC4CCNCC4(C)C)(C1)CC(c1ccccc1)(C3)C2 (centres unmarked) [Example A61] | 800 | 750 | 660 | 1240 | – |
| c1ccc(C23CC4CC(CC(CN5CCNCC5)(C4)C2)C3)cc1 [Example A67] | > 1000 | > 1000 | > 1000 | – | – |
| C[C@@H]1C[C@H](NC(=O)C23CC4C[C@@](C)(C2)C[C@](c2ccccc2)(C4)C3)CCN1 [Example B14] | 25 | 250 | 730 | 14400 | – |
| CC12CC3CC(C(=O)N4C[C@H]5CNC[C@H]5C4)(C1)CC(c1ccccc1)(C3)C2 (mixture of isomers) [Example A45] | 205 | 301 | 330 | 30600 | – |
| N#CC12CC3CC(C(=O)N[C@H]4CC[C@H](N)CC4)(C1)CC(c1ccccc1)(C3)C2 (mixture of isomers) [Example A53] | 670 | > 1000 | > 1000 | – | – |
| CC12CC3CC(C(=O)N4CCC[C@H](N)C4)(C1)CC(c1ccccc1)(C3)C2 (mixture of isomers) [Example A56] | 107 | 75 | 60 | 9090 | – |
| CCC12CC3CC(C(=O)NC4CCC5(CC4)CNC5)(C1)CC(c1ccccc1)(C3)C2 (racemic) [Example A27] | 134 | 567 | 1750 | 7900 | – |
| CC12CC3CC(C(=O)N4CC5(CNC5)C4)(C1)CC(c1ccccc1)(C3)C2 (racemic) [Example A47] | 65 | 238 | 335 | 42300 | – |
| CCC1CNCCN1C(=O)C12CC3CC(C)(C1)CC(c1ccccc1)(C3)C2 (racemic) [Example A36] | 171 | 229 | 130 | 8310 | – |
| CCC12CC3CC(C(=O)N4CC[C@H](N)[C@@H](F)C4)(C1)CC(c1ccccc1)(C3)C2 (mixture of isomers) [Example A24] | 203 | 253 | 310 | 11200 | – |
| CC12CC3CC(C(=O)N[C@@H]4CCCN5CCC[C@H]45)(C1)CC(c1ccccc1)(C3)C2 (mixture of isomers) [Example A59] | 26 | 257 | 400 | 12700 | – |
| CC12CC3CC(C(=O)N4CC[C@@H](N)C4)(C1)CC(c1ccccc1)(C3)C2 (mixture of isomers) [Example A55] | 140 | 160 | 370 | 12600 | – |
| CC12CC3CC(C(=O)N4C5CCC4CC(N)C5)(C1)CC(c1ccccc1)(C3)C2 (racemic) [Example A42] | 33 | 190 | 460 | 11800 | – |
| CC12CC3CC(C(=O)N4CC5(CCNCC5)C4)(C1)CC(c1ccccc1)(C3)C2 (racemic) [Example A44] | 45 | 75 | 245 | 27200 | – |
| CC1(C)CN(C(=O)C23CC4C[C@@](C)(C2)C[C@](c2ccccc2)(C4)C3)CC[C@H]1N [Example B12] | 95 | 105 | 200 | 13300 | – |
| CC1CN(C(=O)C23CC4CC(C)(C2)CC(c2ccccc2)(C4)C3)CCC1N (racemic) [Example A39] | 46 | 91 | 210 | 13200 | – |
| CC12CC3CC(C(=O)N4CCCNCC4)(C1)CC(c1ccccc1)(C3)C2 (racemic) [Example A34] | 90 | 120 | 180 | 23600 | – |
| CC1(N)CCN(C(=O)C23CC4CC(C)(C2)CC(c2ccccc2)(C4)C3)CC1 (racemic) [Example A37] | 58 | 58.7 | 220 | 10900 | – |
| C[C@]12CC3CC(C(=O)N4CC5(CC(N)C5)C4)(C1)C[C@@](c1ccccc1)(C3)C2 [Example B11] | 64 | 104 | 260 | 23600 | – |
| CC[C@]12CC3CC(C(=O)N[C@H]4CC[C@H](N)CC4)(C1)C[C@@](c1ccccc1)(C3)C2 [Example B16] | 16 | 57 | 180 | – | 3020 |
| CCC12CC3CC(CNC4CCNCC4)(C1)CC(c1ccccc1)(C3)C2 (centres unmarked) [Example A62] | 900 | 500 | 540 | 1620 | – |
| CC1(C)CN(CC23CC4C[C@@](C)(C2)C[C@](c2ccccc2)(C4)C3)CC[C@@H]1N [Example B70] | 628 | 930 | 1020 | – | – |
